Source: US7070780B2, “Treatment of demyelinating autoimmune disease with ordered peptides” (Board of Trustees of the Leland Stanford Junior University, priority 1999, dated 2006)
Entries after “also recorded” stand apart in the source; their conditions may differ.

What was measured:
[1] = tested on: experimental autoimmune encephalomyelitis in Lewis rats; test: EAE treatment in Lewis rats immunized with MBPp85–99; format: in vivo; details: EAE induced with MBPp85–99, single intraperitoneal dose of 0.5 mg peptide in PBS at disease onset
Procedure: FIG. 1 is a graph depicting the prevention of EAE in rats treated with ordered peptides. […] Animals were injected with an emulsion of 0.1 mg of MBPp85–99 in complete Freund's adjuvant for EAE induction. Ten days later, when the clinical manifestations of disease became apparent, a single intra-peritoneal dose of peptide {SEQ ID NO:4} EYYKEYYKEYYK (squares), {SEQ ID NO:5} KYYKYYKYYKYY (triangles), or PBS (circles)was administered. Results are expressed as mean disease score of groups of six animals.
Animals. Female Lewis rats (6–8 weeks old), were purchased from Harlan Sprague Dawley (Indianapolis, Ind.)
Peptides. For immunization and disease reversal, peptides were synthesized on a peptide synthesizer (model 9050: MilliGen, Burlington, Mass.) by standard 9-fluorenylmethoxycarbonyl chemistry. Peptides were purified by HPLC. Structure was confirmed by amino acid analysis and mass spectroscopy. Peptides used for the experiments were: {SEQ ID NO:11} ENPVVHFFKNIVTPR (MBPp85–99), {SEQ ID NO:4} EYYKEYYKEYYK, {SEQ ID NO:5} KYYKYYKYYKYY.
EAE Induction. […] Experimental animals were scored as follows: 0, no clinical disease; 1, tail weakness or paralysis; 2, hind limb weakness; 3, hind limb paralysis; 4, forelimb weakness or paralysis; 5, moribund or dead animal.
EAE Treatment. Rats previously immunized with MBPp85–99 for EAE induction were scored from day eight after peptide injection. […]

[2] = tested on: anti-MBP antibodies; test: Inhibition of autoantibody binding to MBP (anti-MBP antibodies affinity-purified from CNS lesions); details: anti-MBP antibodies from CNS lesions of 12 post-mortem cases
Source text: Previously, we have compared the structural requirements for autoantibody recognition to those of T cell clones reactive to MBP p87–99. Anti-MBP antibodies were affinity-purified from CNS lesions of 12 post-mortem cases studied. The MBP p87–99 peptide was immunodominant in all cases and it inhibited autoantibody binding to MBP by more than 95%. Residues contributing to autoantibody binding were located in a 10-amino acid segment p86–95 ({SEQ ID NO:9} VVHFFKNIVT) that also contained the MHC-T cell receptor contact residues for T cells recognizing MBP in the context of DRB1*1501 and DQB1*0602. In the epitope center, the same residues, {SEQ ID NO:10} VHFFK, were important for T cell binding and MHC recognition. Recently, the crystal structure of HLA-DR2 with MBPp85–99 was solved, confirming the prediction that K91 is the major TCR contact residue, while F90 is a major anchor into the hydrophobic P4 pocket of the MHC molecule.

| inhibition of autoantibody binding to MBP [2] | Substance | effect on EAE (mean disease score) [1] |
| --- | --- | --- |
| – | EYYKEYYKEYYK [ordered peptide of the repeated motif EYYK (n=3)] | prevents the development of EAE; also recorded: effective in preventing and treating experimental autoimmune encephalomyelitis |
| more than 95% | MBP p87–99: peptide of residues 87–99 of myelin basic protein, immunodominant epitope (SRPHLIRLFSRDA; UniProt P02686 87-99, looked up, fragment) | – |
